Laboratory results: ChEMBL document CHEMBL1136768, “Structure-activity relationships of (S,Z)-2-aminopurine methylenecyclopropane analogues of nucleosides. Variation of purine-6 substituents and activity against herpesviruses and hepatitis B virus” (J Med Chem, 2003)

Experiments:
Human gammaherpesvirus 4 [1] = assay: Concentration inhibiting the replication of EBV in H-1 cells by DNA hybridization assay; format: functional, organism-based; settings: human gammaherpesvirus 4, H-1
CCRF-CEM = assay: Cytotoxicity in uninfected CEM cells; format: functional; settings: Homo sapiens
Human betaherpesvirus 5 = assay: Concentration inhibiting the replication of HCMV in HFF cells by plaque reduction assay; settings: Human betaherpesvirus 5, HFF
Human gammaherpesvirus 4 [2] = assay: Concentration inhibiting the replication of EBV in Daudi cells; format: functional, organism-based; settings: human gammaherpesvirus 4, Daudi
Human alphaherpesvirus 2 = assay: Concentration inhibiting the replication of HSV-2 in Vero cells.; format: functional, organism-based; settings: Human alphaherpesvirus 2, Vero
HFF [3] = assay: Cytotoxicity was scored on uninfected HFF cells not affected by virus in the HCMV (AD169 strain) by neutral red uptake; format: functional
Human alphaherpesvirus 1 [4] = assay: Concentration inhibiting the replication of HSV-1 in Vero cells determined by plaque reduction assay; format: functional, organism-based, herpes simplex virus; settings: Human alphaherpesvirus 1, Vero
Hepatitis B virus = assay: Inhibition of the replication of HBV in 2.2.15 cells, by DNA hybridization assay; format: functional, organism-based; settings: HepG2 2.2.15
Human alphaherpesvirus 1 [5] = assay: Concentration inhibiting the replication of HSV-1 in BSC-1 cells determined by ELISA assay; format: functional, organism-based, herpes simplex virus; settings: Human alphaherpesvirus 1, BSC-1
Daudi [6] = assay: Cytotoxicity in uninfected Daudi cells; format: functional; settings: Homo sapiens
MEF = assay: Cytotoxicity in uninfected MEF cells; format: functional; settings: Mus musculus
Murid betaherpesvirus 1 = assay: Concentration inhibiting the replication of MCMV in MEF cells; format: functional, organism-based; settings: Murid betaherpesvirus 1, MEF
HFF [7] = assay: Cytotoxicity against proliferating HFF cells; format: functional; settings: Homo sapiens
Daudi [8] = assay: Concentration inhibiting the replication of EBV in Daudi cells by DNA hybridization assay; format: functional, cell-based; settings: Homo sapiens

Row | Structure (SMILES) | EC50 (Human gammaherpesvirus 4 [1]) [µM] | EC50 (Human betaherpesvirus 5) [µM] | EC50 (Human gammaherpesvirus 4 [2]) [µM] | EC50 (Human alphaherpesvirus 2) [µM] | EC50 (Human alphaherpesvirus 1 [4]) [µM] | EC50 (Hepatitis B virus) [µM] | EC50 (Human alphaherpesvirus 1 [5]) [µM] | EC50 (Murid betaherpesvirus 1) [µM] | EC50 (Daudi [8]) [µM] | CC50 (CCRF-CEM) [µM] | CC50 (HFF [3]) [µM] | CC50 (Daudi [6]) [µM] | CC50 (MEF) [µM] | CC50 (HFF [7]) [µM]
1 | Nc1nc(OCC2CC2)c2ncn(/C=C3/C[C@@H]3CO)c2n1 | 12.6 | 8.4 | 29.2 | 12 | 8 | 12.6 | 7 | 0.35 |  | 41 |  | 112 | 278 | 112
2 | C=CCNc1nc(N)nc2c1ncn2/C=C1/C[C@@H]1CO | 18.5 | > 368 | > 184 | 21 | 18 | 20 | 4 | 0.33 |  | > 100 |  | > 184 | > 368 | > 368
3 | Nc1nc(NC2CCCCC2)c2ncn(/C=C3/C[C@@H]3CO)c2n1 | > 20 | 180 | > 159 | > 50 | > 50 | > 20 | 15 |  |  | > 100 | > 318 | > 159 |  | 
4 | CCCCCSc1nc(N)nc2c1ncn2/C=C1/C[C@@H]1CO | > 20 | > 80 | 39.8 | 14 | 10 | > 20 | 7 | 1.5 |  | 26 |  | > 157 | 171 | 215
5 | Nc1nc(S)c2ncn(/C=C3/C[C@@H]3CO)c2n1 | > 20 | > 80 | > 8 | > 50 | > 50 | 20 | > 100 | > 16 |  | 29 |  | 35.3 | 64 | 
6 | Nc1nc(NCCO)c2ncn(/C=C3/C[C@@H]3CO)c2n1 | > 20 | > 60 | > 181 | > 50 | > 50 | > 20 | > 100 | 11.9 |  | > 100 |  | > 181 | > 362 | 
7 | Nc1nc(NCc2ccccc2)c2ncn(/C=C3/C[C@@H]3CO)c2n1 | > 20 | > 62 | > 155 | 52 | > 100 | > 20 | > 50 |  |  | > 50 | > 310 |  | 25 | 
8 | Nc1nc(NCC2CC2)c2ncn(/C=C3/C[C@@H]3CO)c2n1 | > 20 | 10.8 | 0.56 | > 50 | 25 | > 20 | 2.5 | 1.7 | 7 | > 100 |  | > 175 | 279 | 

Now those with a lower EC50 (Human gammaherpesvirus 4 [1]), led by results:

Row | EC50 (Human gammaherpesvirus 4 [1]) [µM] | EC50 (Human betaherpesvirus 5) [µM] | EC50 (Human gammaherpesvirus 4 [2]) [µM] | EC50 (Human alphaherpesvirus 2) [µM] | EC50 (Human alphaherpesvirus 1 [4]) [µM] | EC50 (Hepatitis B virus) [µM] | EC50 (Human alphaherpesvirus 1 [5]) [µM] | EC50 (Murid betaherpesvirus 1) [µM] | EC50 (Daudi [8]) [µM] | Structure (SMILES) | CC50 (CCRF-CEM) [µM] | CC50 (HFF [3]) [µM] | CC50 (Daudi [6]) [µM] | CC50 (MEF) [µM] | CC50 (HFF [7]) [µM]
9 | 11 | > 365 | 36.5 | > 50 | > 38 | > 10 | 15 |  |  | CC(C)Nc1nc(N)nc2c1ncn2/C=C1/C[C@@H]1CO | > 100 | > 365 | 168 |  | 
10 | 7.3 | > 66 | 23.4 | 4 | 3 | 7.3 | 7 | 1.45 |  | CCCCCOc1nc(N)nc2c1ncn2/C=C1/C[C@@H]1CO | 87 |  | > 165 | 224 | 41.9
11 | 0.44 | 10 | 3.8 | 16 | 23 | > 10 | 20 | 0.24 | 1 | COc1nc(N)nc2c1ncn2/C=C1/C[C@@H]1CO | 98 |  | 146 | 351 | 15.8
12 | 0.66 | 12 | 6.2 | 22 | 15 | > 10 | 20 | 0.15 | 0.85 | Nc1nc(NC2CC2)c2ncn(/C=C3/C[C@@H]3CO)c2n1 | 70 |  | 176 | 367 | 213
13 | 6.3 | > 69 | > 172 | 10 | 9 | 5.1 | 1 | 1.4 |  | CCCSc1nc(N)nc2c1ncn2/C=C1/C[C@@H]1CO | > 100 |  | > 172 | 343 | 283
14 | 1.1 | 2.3 | > 183 | 8 | 7 | 11 | 1.5 | 0.29 |  | C=CCOc1nc(N)nc2c1ncn2/C=C1/C[C@@H]1CO | 26 |  | > 183 | > 366 | 220
15 | 0.47 | 55 | 2.3 | > 50 | 50 | > 10 | 45 | 0.39 | < 0.34 | Nc1nc(O)c2ncn(/C=C3/C[C@@H]3CO)c2n1 | 90 |  | > 215 | > 429 | 257
16 | ~2 | > 74 | > 185 | 50 | 20 | > 10 | 6 | 0.37 |  | C#CCNc1nc(N)nc2c1ncn2/C=C1/C[C@@H]1CO | > 100 |  | > 185 | > 370 | 306
17 | 1.5 | 8 | > 182 | 10 | 4 | 4.1 | 1 | < 0.11 |  | CCCOc1nc(N)nc2c1ncn2/C=C1/C[C@@H]1CO | 32 |  | > 182 | 363 | 69.4
